These compounds were tested against T1, P2X purinoceptor 7 (Homo sapiens, UniProt Q99572) (assay: SUPPLEMENTARY: Inhibition of human P2X7 receptor assessed as inhibition of ethidium bromide accumulation. Same assay as CHEMBL1103860).
T1 sequence (Q99572 whole entry): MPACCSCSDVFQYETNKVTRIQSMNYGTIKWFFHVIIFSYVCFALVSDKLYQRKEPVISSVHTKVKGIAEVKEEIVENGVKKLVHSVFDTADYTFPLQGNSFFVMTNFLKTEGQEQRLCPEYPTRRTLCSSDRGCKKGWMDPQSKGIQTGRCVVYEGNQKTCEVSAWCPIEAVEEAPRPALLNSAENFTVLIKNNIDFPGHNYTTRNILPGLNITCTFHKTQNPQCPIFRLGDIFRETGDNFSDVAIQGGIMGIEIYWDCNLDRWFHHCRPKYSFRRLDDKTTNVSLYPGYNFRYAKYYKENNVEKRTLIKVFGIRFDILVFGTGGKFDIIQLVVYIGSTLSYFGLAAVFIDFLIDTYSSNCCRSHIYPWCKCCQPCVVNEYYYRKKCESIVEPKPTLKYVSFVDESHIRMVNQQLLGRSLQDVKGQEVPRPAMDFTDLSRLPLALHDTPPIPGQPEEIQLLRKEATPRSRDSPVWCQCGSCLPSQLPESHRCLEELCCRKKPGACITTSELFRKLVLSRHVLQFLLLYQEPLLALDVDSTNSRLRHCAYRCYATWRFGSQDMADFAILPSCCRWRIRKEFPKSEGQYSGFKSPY

Row | Compound | IC50 [nM]
1 | Cc1cccc(C)c1CNC(=O)Cc1c(C)nn(-c2ccccc2)c1C | 63.1
2 | CCN1C(=O)CC[C@@H]1C(=O)NCc1ccc(Cl)c(C(F)(F)F)c1 | 316
3 | CCN1C(=O)CC[C@@H]1C(=O)NCc1c(C)cccc1Cl | 501
4 | CN1C(=O)CC[C@H]1C(=O)NCc1cccc(Cl)c1Cl | 15.8
5 | Cc1nn(-c2ncccc2C(F)(F)F)c(C)c1CC(=O)NCc1ccc(F)cc1Cl | 501
6 | Cc1nn(C2CCN(Cc3ccccc3)CC2)c(C)c1CC(=O)NCc1ccc(F)cc1Cl | 63.1
7 | Cc1nn(CC2CCCCC2)c(C)c1CC(=O)NCc1ccc(F)cc1Cl | 631
8 | Cc1nn(CC(C)(C)C)c(C)c1CC(=O)NCc1ccc(F)cc1Cl | 100
9 | Cc1nn(C2CCN(C)CC2)c(C)c1CC(=O)NCc1ccc(F)cc1Cl | 126
10 | Cc1nn(Cc2nc3ccccc3s2)c(C)c1CC(=O)NCc1ccc(F)cc1Cl | 398
11 | Cc1nn(CC(C)C)c(C)c1CC(=O)NCc1ccc(F)cc1Cl | 251
12 | Cc1nn(C2CCOCC2)c(C)c1CC(=O)NCc1ccc(F)cc1Cl | 1260
13 | Cc1nn(Cc2ccncc2)c(C)c1CC(=O)NCc1ccc(F)cc1Cl | 316
14 | Cc1cc(-n2nc(C)c(CC(=O)NCc3ccc(F)cc3Cl)c2C)nc(C)n1 | 200
15 | Cc1ccc(-n2nc(C)c(CC(=O)NCc3ccc(F)cc3Cl)c2C)cn1 | 251
16 | Cc1nn(Cc2ccccn2)c(C)c1CC(=O)NCc1ccc(F)cc1Cl | 398
17 | Cc1nn(CCN2CCOCC2)c(C)c1CC(=O)NCc1ccc(F)cc1Cl | 251
18 | Cc1ccncc1-n1nc(C)c(CC(=O)NCc2ccc(F)cc2Cl)c1C | 398
19 | CCN(CC)CCn1nc(C)c(CC(=O)NCc2ccc(F)cc2Cl)c1C | 200
20 | Cc1nn(CCN2CCCCC2)c(C)c1CC(=O)NCc1ccc(F)cc1Cl | 50.1
21 | Cc1ccccc1-n1cc(CC(=O)NCc2ccc(F)cc2Cl)cn1 | 631
22 | Cc1nn(-c2ccccc2)c(C)c1CC(=O)NCc1cccc(Cl)c1C | 31.6
23 | Cc1nn(-c2ccccc2)c(C)c1CC(=O)NCc1ccc(F)c(F)c1 | 251
24 | Cc1ccc(C)c(CNC(=O)Cc2c(C)nn(-c3ccccc3)c2C)c1 | 794
25 | Cc1ccc(Cl)cc1CNC(=O)Cc1c(C)nn(-c2ccccc2)c1C | 126

Row | Compound | IC50 [nM]
26 | Cc1cccc(Cl)c1CNC(=O)Cc1c(C)nn(-c2ccccc2)c1C | 39.8
27 | Cc1ncccc1-n1nc(C)c(CC(=O)NCc2ccc(F)cc2Cl)c1C | 79.4
28 | Cc1cncc(-n2nc(C)c(CC(=O)NCc3ccc(F)cc3Cl)c2C)c1 | 316
29 | COCCNCCn1nc(C)c(CC(=O)NCc2ccc(F)cc2Cl)c1C | 126
30 | Cc1nn(CCN)c(C)c1CC(=O)NCc1ccc(F)cc1Cl | 158
31 | COCCn1nc(C)c(CC(=O)NCc2ccc(F)cc2Cl)c1C | 398
32 | Cc1nn(CCN2CCOCC2)c(C)c1CC(=O)NCc1cccc(Cl)c1C | 126
33 | Cc1cccc(Cl)c1CNC(=O)Cc1c(C)nn(CC(C)(C)O)c1C | 200
34 | CCOc1cccc(-n2cc(CC(=O)NCc3ccc(F)cc3Cl)cn2)n1 | 1260
35 | Cc1nn(-c2ncccn2)c(C)c1CC(=O)NCc1ccc(F)c(F)c1F | 79.4
36 | O=C(Cc1cn(CCNC2CCOCC2)nc1C(F)(F)F)NCc1ccc(F)cc1Cl | 794
37 | COc1ccc(-n2nc(C)c(CC(=O)NCc3ccc(F)cc3Cl)c2C)cn1 | 251
38 | COc1cncc(-n2nc(C)c(CC(=O)NCc3ccc(F)cc3Cl)c2C)c1 | 398
39 | O=C(Cc1cnn(CCN2CCCCC2)c1C(F)(F)F)NCc1ccc(F)cc1Cl | 794
40 | CCN1C(=O)CC[C@H]1C(=O)NCc1ccccc1Br | 251
41 | CCN1C(=O)CC[C@H]1C(=O)NCc1c(F)cccc1Cl | 1000
42 | CCN1C(=O)CC[C@H]1C(=O)NCc1ccc(C)cc1C | 158
43 | CCN1C(=O)CC[C@H]1C(=O)NCc1c(F)ccc(C)c1Cl | 158
44 | CCN1C(=O)CC[C@H]1C(=O)NCc1c(Cl)ccc(C)c1F | 794
45 | CCN1C(=O)CC[C@H]1C(=O)NCc1ccc(F)c(C(F)(F)F)c1 | 79.4
46 | CCN1C(=O)CC[C@H]1C(=O)NCc1ccc(Cl)c(C(F)(F)F)c1 | 79.4
47 | CCN1C(=O)CC[C@H]1C(=O)NCc1ccc(C(F)(F)F)cc1 | 200
48 | CCN1C(=O)CC[C@H]1C(=O)NCc1ccccc1C | 794
49 | CCN1C(=O)CC[C@H]1C(=O)NCc1ccc(F)c(F)c1Cl | 7.94
50 | CCN1C(=O)OC[C@H]1C(=O)NCc1ccc(F)cc1Cl | 100

Further compounds by falling IC50, results first:

Row | IC50 [nM] | Compound
51 | 1260 | O=C(Cc1cnn(-c2ccc(F)cc2)c1C(F)(F)F)NCc1ccc(F)cc1Cl
52 | 1260 | Cc1nn(CC(=O)O)c(C)c1CC(=O)NCc1ccc(F)cc1Cl
53 | 1260 | CN(C)CCn1ncc(CC(=O)NCc2ccc(F)cc2Cl)c1C(F)(F)F
54 | 1260 | O=C(Cc1cnn(CCNC2CCOCC2)c1C(F)(F)F)NCc1ccc(F)cc1Cl
55 | 794 | Cc1nn(CC(C)(C)O)c(C)c1CC(=O)NCc1ccc(F)c(F)c1F
56 | 794 | COCCNCCn1ncc(CC(=O)NCc2ccc(F)cc2Cl)c1C(F)(F)F
57 | 794 | CCN1C(=O)CC[C@H]1C(=O)NCc1c(F)ccc(F)c1Cl
58 | 631 | Cc1nn(C(C)C)c(C)c1CC(=O)NCc1ccc(F)cc1Cl
59 | 631 | Cc1ccc(-n2nc(C)c(CC(=O)NCc3ccc(F)cc3Cl)c2C)nn1
60 | 631 | Cc1nn(-c2ccccc2)c(C)c1CC(=O)NCc1cc(Cl)ccc1F
61 | 631 | O=C(Cc1cn(CCNCCO)nc1C(F)(F)F)NCc1ccc(F)cc1Cl
62 | 501 | Cc1nn(C2CCCC2)c(C)c1CC(=O)NCc1ccc(F)cc1Cl
63 | 501 | CCN(CC)C(=O)Cn1nc(C)c(CC(=O)NCc2ccc(F)cc2Cl)c1C
64 | 398 | C=C(C)CN1C(=O)CC[C@H]1C(=O)NCc1ccc(F)cc1Cl
65 | 398 | Cc1nn(C(C)(C)C)c(C)c1CC(=O)NCc1ccc(F)cc1Cl
66 | 398 | Cc1ccc(-n2nc(C)c(CC(=O)NCc3ccc(F)cc3Cl)c2C)c(C)n1
67 | 398 | O=C(Cc1cn(CCO)nc1C(F)(F)F)NCc1ccc(F)cc1Cl
68 | 398 | O=C(Cc1cnn(-c2ccc(F)cc2)c1Br)NCc1ccc(F)cc1Cl
69 | 398 | CCN1C(=O)CC[C@H]1C(=O)NCc1cccc(F)c1F
70 | 316 | Cc1nn(CC(F)(F)F)c(C)c1CC(=O)NCc1ccc(F)cc1Cl
71 | 316 | Cc1cc(-n2nc(C)c(CC(=O)NCc3ccc(F)cc3Cl)c2C)ccn1
72 | 316 | Cc1nn(CC(C)(C)O)c(C)c1CC(=O)NCc1ccc(F)cc1Cl
73 | 316 | CCN1C(=O)OC[C@@H]1C(=O)NCc1ccc(F)cc1Cl
74 | 251 | Cc1c(CC(=O)NCc2ccc(F)cc2Cl)cnn1-c1ccc(F)cc1
75 | 251 | Cc1nn(Cc2ccccc2N(C)C)c(C)c1CC(=O)NCc1ccc(F)cc1Cl
76 | 251 | CCc1ccccc1-n1cc(CC(=O)NCc2ccc(F)cc2Cl)cn1
77 | 251 | COc1ncccc1-n1nc(C)c(CC(=O)NCc2ccc(F)cc2Cl)c1C
78 | 251 | CCN1C(=O)CC[C@H]1C(=O)NCc1ccc(Cl)c(Cl)c1

Row | IC50 [nM] | Compound
79 | 200 | CN1C(=O)CCC1(C)C(=O)NCc1ccc(Cl)cc1Cl (stereo not given)
80 | 200 | CCn1nc(C)c(CC(=O)NCc2ccc(F)cc2Cl)c1C
81 | 200 | Cc1nn(CCN(C)CCO)c(C)c1CC(=O)NCc1ccc(F)cc1Cl
82 | 200 | O=C(Cc1cnn(CCO)c1C(F)(F)F)NCc1ccc(F)cc1Cl
83 | 158 | Cc1nn(CC(C)(C)O)c(C)c1CC(=O)NCc1cccc(Cl)c1C
84 | 158 | CCN1C(=O)CC[C@H]1C(=O)NCc1ccc(F)c(F)c1F
85 | 126 | CN1C(=O)CC[C@H]1C(=O)NCc1c(Cl)cccc1Cl
86 | 126 | Cc1nn(CCN2CCCC2)c(C)c1CC(=O)NCc1ccc(F)cc1Cl
87 | 100 | CN1C(=O)CC[C@H]1C(=O)NCc1ccc(F)cc1C(F)(F)F
88 | 100 | Cc1nn(CCNCCO)c(C)c1CC(=O)NCc1ccc(F)cc1Cl
89 | 100 | CCN1C(=O)[C@H](Cc2ccccc2)C[C@H]1C(=O)NCc1ccc(F)cc1Cl
90 | 100 | CCN1C(=O)CC[C@H]1C(=O)NCc1c(C)cccc1Cl
91 | 100 | CCN1C(=O)CC[C@H]1C(=O)NCc1c(Cl)cccc1Cl
92 | 100 | CC1(C(=O)NCc2ccc(Cl)cc2Cl)CCC(=O)N1C1CCC1 (stereo not given)
93 | 79.4 | CCN1C(=O)CC[C@H]1C(=O)NCc1cccc(Cl)c1F
94 | 63.1 | Cc1nn(-c2ccccc2)c(C)c1CC(=O)NCc1ccc(F)c(F)c1F
95 | 63.1 | Cc1nn(CCO)c(C)c1CC(=O)NCc1cccc(Cl)c1C
96 | 50.1 | CCN1C(=O)CC[C@H]1C(=O)NCc1c(C)cc(C)cc1C
97 | 39.8 | Cc1nn(CCNCC(C)C)c(C)c1CC(=O)NCc1ccc(F)cc1Cl
98 | 39.8 | CCN1C(=O)CC[C@H]1C(=O)NCc1ccc(F)cc1C(F)(F)F
99 | 39.8 | CCN1C(=O)CC[C@H]1C(=O)NCc1ccc(Br)cc1F
100 | 25.1 | Cc1cc(Cl)ccc1CNC(=O)[C@@H]1CCC(=O)N1C
101 | 25.1 | CCN1C(=O)CC[C@H]1C(=O)NCc1ccc(Cl)cc1C
102 | 25.1 | CCN1C(=O)CC[C@H]1C(=O)NCc1cccc(C(F)(F)F)c1F
103 | 15.8 | Cc1nn(-c2ccc(C(=O)NCc3ccccn3)cc2)c(C)c1CC(=O)NCc1ccc(F)cc1Cl
104 | 15.8 | CCN1C(=O)CC[C@H]1C(=O)NCc1cccc(Cl)c1C
105 | 12.6 | CN1C(=O)CC[C@H]1C(=O)NCc1ccc(Cl)cc1Cl
